Measured values as given in patent US6355799B1, “Substituted benzene compounds, process for their preparation, and herbicidal and defoliant compositions containing them” (ISK Americas Incorporated, priority 1997, dated 2002).

Legend:
Format in all cases: in vivo
[1] = system: redroot pigweed (Amaranthus retroflexus, AMARE); assay: Pre-emerge test, greenhouse herbicide activity screening; conditions: pre-emerge, rated 14 days after application, 0 = no damage, 100 = complete death
How it was run: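 Rating: 0–100 visual injury, 14 DAA. Application: acetone, 187 l/ha, 15–1000 g ai/ha, flat-fan track sprayer with nozzle 40–45 cm above soil or canopy. Post-emerge runs used 0.25% v/v surfactant on 2–3 leaf plants.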

[2] = system: barnyardgrass (Echinochloa crus-galli, ECHCG); assay: as above; conditions: pre-emerge, rated 14 days after application, 0 = no damage, 100 = complete death
How it was run: (§1)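 Visual ratings on a 0-100 scale (0 no damage, 100 all plants dead) were taken at 14 days after treatment. Rates of 15-1000 g ai/ha in acetone, 187 l/ha, were sprayed onto soil one day after planting (pre-emerge) or onto 2-3 leaf plants with 0.25% v/v surfactant (post-emerge).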

[3] = system: green foxtail (Setaria viridis, SETVI); assay: as above; conditions: pre-emerge, rated 14 days after application, 0 = no damage, 100 = complete death
How it was run: as §1

[4] = system: ivyleaf morningglory (Ipomoea hederacea, IPOHE); assay: as above; conditions: pre-emerge, rated 14 days after application, 0 = no damage, 100 = complete death
How it was run: as §1

[5] = system: johnsongrass (Sorghum halepense, SORHA); assay: as above; conditions: pre-emerge, rated 14 days after application, 0 = no damage, 100 = complete death
How it was run: as §1

[6] = system: lambsquarters (Chenopodium album, CHEAL); assay: as above; conditions: pre-emerge, rated 14 days after application, 0 = no damage, 100 = complete death
How it was run: as §1

[7] = system: large crabgrass (Digitaria sanguinalis, DIGSA); assay: as above; conditions: pre-emerge, rated 14 days after application, 0 = no damage, 100 = complete death
How it was run: as §1

[8] = system: sicklepod (Cassia obtusifolia, CASOB); assay: as above; conditions: pre-emerge, rated 14 days after application, 0 = no damage, 100 = complete death
How it was run: as §1

[9] = system: velvetleaf (Abutilon theophrasti, ABUTH); assay: as above; conditions: pre-emerge, rated 14 days after application, 0 = no damage, 100 = complete death
How it was run: as §1

[10] = system: field corn (Zea mays L., var. Dekalb 535, CORN); assay: Pre-emerge test, crop safety; conditions: pre-emerge, rated 14 days after application, 0 = no damage, 100 = complete death
How it was run: (§2)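 Applied at 15–1000 g ai/ha from acetone in 187 l/ha spray volume. Post-emergence applications included 0.25% v/v non-ionic surfactant and reached plants sown 8–21 days before. Pre-emergence applications were incorporated by surface watering. Efficacy or crop damage was rated on a 0–100 scale after 14 days.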

[11] = system: upland rice (Oryza sp., var. Tebonnet, RICE); assay: Pre-emerge test, crop safety; conditions: pre-emerge, rated 14 days after application, 0 = no damage, 100 = complete death
How it was run: as §2

[12] = system: barnyardgrass (Echinochloa crus-galli, ECHCG); assay: Post-emerge test, greenhouse herbicide activity screening; conditions: phytotoxicity rating 0-100 (0 no damage, 100 complete death), 14 days after application
How it was run: (§3)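 Each test used a mechanized track sprayer delivering 187 l/ha of acetone solution at 15–1000 g ai/ha. Post-emerge foliage at 2–3 leaves was treated with added 0.25% v/v non-ionic surfactant and bottom-watered only. Injury was assessed on day 14, where 100 means total kill.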

[13] = system: green foxtail (Setaria viridis, SETVI); assay: as above; conditions: phytotoxicity rating 0-100 (0 no damage, 100 complete death), 14 days after application
How it was run: as §3

[14] = system: ivyleaf morningglory (Ipomoea hederacea, IPOHE); assay: as above; conditions: phytotoxicity rating 0-100 (0 no damage, 100 complete death), 14 days after application
How it was run: as §3

[15] = system: johnsongrass (Sorghum halepense, SORHA); assay: as above; conditions: phytotoxicity rating 0-100 (0 no damage, 100 complete death), 14 days after application
How it was run: as §3

[16] = system: lambsquarters (Chenopodium album, CHEAL); assay: as above; conditions: phytotoxicity rating 0-100 (0 no damage, 100 complete death), 14 days after application
How it was run: as §3

[17] = system: large crabgrass (Digitaria sanguinalis, DIGSA); assay: as above; conditions: phytotoxicity rating 0-100 (0 no damage, 100 complete death), 14 days after application
How it was run: as §3

[18] = system: redroot pigweed (Amaranthus retroflexus, AMARE); assay: as above; conditions: phytotoxicity rating 0-100 (0 no damage, 100 complete death), 14 days after application
How it was run: as §3

[19] = system: sicklepod (Cassia obtusifolia, CASOB); assay: as above; conditions: phytotoxicity rating 0-100 (0 no damage, 100 complete death), 14 days after application
How it was run: as §3

[20] = system: velvetleaf (Abutilon theophrasti, ABUTH); assay: as above; conditions: phytotoxicity rating 0-100 (0 no damage, 100 complete death), 14 days after application
How it was run: as §3

[21] = system: field corn (Zea mays L., var. Dekalb 535, CORN); assay: Post-emerge test, crop safety; conditions: phytotoxicity rating 0-100 (0 no damage, 100 complete death), 14 days after application
How it was run: as §1

[22] = system: upland rice (Oryza sp., var. Tebonnet, RICE); assay: Post-emerge test, crop safety; conditions: phytotoxicity rating 0-100 (0 no damage, 100 complete death), 14 days after application
How it was run: as §1

CCc1ccc(C(=O)Nc2c(OCC#N)c(Cl)cc(F)c2-n2c(=O)cc(C(F)(F)F)n(C)c2=O)cc1 [2-28]
5: Pre-emerge Herbicidal Activity CASOB (phytotoxicity rating, scale 0-100) ([8]; 63 g ai/ha)
50: Pre-emerge Herbicidal Activity SETVI (phytotoxicity rating, scale 0-100) ([3]; 63 g ai/ha) | Pre-emerge Herbicidal Activity SORHA (phytotoxicity rating, scale 0-100) ([5]; 250 g ai/ha) | Pre-emerge Herbicidal Activity DIGSA (phytotoxicity rating, scale 0-100) ([7]; 63 g ai/ha) | Post-emerge Herbicidal Activity IPOHE ([14]; 250 g ai/ha)
15: Post-emerge Herbicidal Activity CORN (crop damage) ([21]; 63 g ai/ha)
80: Pre-emerge Herbicidal Activity IPOHE (phytotoxicity rating, scale 0-100) ([4]; 63 g ai/ha)
30: Post-emerge Herbicidal Activity SETVI ([13]; 63 g ai/ha) | Post-emerge Herbicidal Activity SETVI ([13]; 250 g ai/ha) | Post-emerge Herbicidal Activity CASOB ([19]; 63 g ai/ha)
25: Post-emerge Herbicidal Activity CORN (crop damage) ([21]; 250 g ai/ha)
0: Pre-emerge Herbicidal Activity ECHCG (phytotoxicity rating, scale 0-100) ([2]; 63 g ai/ha) | Pre-emerge crop damage CORN (phytotoxicity rating, scale 0-100) ([10]; 63 g ai/ha) | Post-emerge Herbicidal Activity ECHCG ([12]; 63 g ai/ha) | Post-emerge Herbicidal Activity ECHCG ([12]; 250 g ai/ha) | Post-emerge Herbicidal Activity SORHA ([15]; 63 g ai/ha) | Post-emerge Herbicidal Activity SORHA ([15]; 250 g ai/ha) | Post-emerge Herbicidal Activity DIGSA ([17]; 63 g ai/ha) | Post-emerge Herbicidal Activity DIGSA ([17]; 250 g ai/ha)
20: Pre-emerge Herbicidal Activity ECHCG (phytotoxicity rating, scale 0-100) ([2]; 250 g ai/ha) | Post-emerge Herbicidal Activity CASOB ([19]; 250 g ai/ha)
60: Pre-emerge crop damage RICE (phytotoxicity rating, scale 0-100) ([11]; 63 g ai/ha) | Post-emerge Herbicidal Activity IPOHE ([14]; 63 g ai/ha) | Post-emerge Herbicidal Activity CHEAL ([16]; 63 g ai/ha) | Post-emerge Herbicidal Activity CHEAL ([16]; 250 g ai/ha)
90: Pre-emerge Herbicidal Activity DIGSA (phytotoxicity rating, scale 0-100) ([7]; 250 g ai/ha) | Post-emerge Herbicidal Activity RICE (crop damage) ([22]; 63 g ai/ha) | Post-emerge Herbicidal Activity RICE (crop damage) ([22]; 250 g ai/ha)
100: Pre-emerge Herbicidal Activity AMARE (phytotoxicity rating, scale 0-100) ([1]; 63 g ai/ha) | Pre-emerge Herbicidal Activity AMARE (phytotoxicity rating, scale 0-100) ([1]; 250 g ai/ha) | Pre-emerge Herbicidal Activity SETVI (phytotoxicity rating, scale 0-100) ([3]; 250 g ai/ha) | Pre-emerge Herbicidal Activity IPOHE (phytotoxicity rating, scale 0-100) ([4]; 250 g ai/ha) | Pre-emerge Herbicidal Activity CHEAL (phytotoxicity rating, scale 0-100) ([6]; 63 g ai/ha) | Pre-emerge Herbicidal Activity CHEAL (phytotoxicity rating, scale 0-100) ([6]; 250 g ai/ha) | Pre-emerge Herbicidal Activity CASOB (phytotoxicity rating, scale 0-100) ([8]; 250 g ai/ha) | Pre-emerge Herbicidal Activity ABUTH (phytotoxicity rating, scale 0-100) ([9]; 63 g ai/ha) | Pre-emerge Herbicidal Activity ABUTH (phytotoxicity rating, scale 0-100) ([9]; 250 g ai/ha) | Post-emerge Herbicidal Activity AMARE ([18]; 63 g ai/ha) | Post-emerge Herbicidal Activity AMARE ([18]; 250 g ai/ha) | Post-emerge Herbicidal Activity ABUTH ([20]; 63 g ai/ha) | Post-emerge Herbicidal Activity ABUTH ([20]; 250 g ai/ha)
70: Pre-emerge crop damage RICE (phytotoxicity rating, scale 0-100) ([11]; 250 g ai/ha)
10: Pre-emerge Herbicidal Activity SORHA (phytotoxicity rating, scale 0-100) ([5]; 63 g ai/ha) | Pre-emerge crop damage CORN (phytotoxicity rating, scale 0-100) ([10]; 250 g ai/ha)
